What was measured:
human recombinant PFKFB3 = human recombinant PFKFB3 (Homo sapiens, UniProt Q16875); assay: In vitro kinase assay with purified recombinant human PFKFB3; assay type: biochemical; details: 10 μM
Protocol: Figure 1 Compound 5MPN inhibits recombinant PFKFB4 enzyme activity A. Representation of the 5MPN molecule docked in the crystal structure of rat testes PFKFB4. 5MPN is shown in thicker stick representation than the surrounding protein residues. B. Molecular structure of 5MPN (MW, 305.3 Da). In vitro kinase assays using purified recombinant human PFKFB4 were performed as described in the presence or absence of 0.1, 1 or 10 μM 5MPN. Michaelis-Menten C. and Lineweaver-Burk double reciprocal D. plots examining PFKFB4 enzyme activity as a function of F6P concentration (0 - 2000 μmol/L) are shown. E. In vitro kinase assays using purified recombinant human PFKFB3 were performed as described in the presence or absence of 0.1, 1 or 10 μM 5MPN and the Michaelis-Menten plot examining PFKFB3 enzyme activity as a function of F6P concentration (0 - 400 μmol/L) is shown. Data shown are representative of three independent experiments. […] The activity of 5MPN against 97 kinases was examined using a commercially available active-site dependent competition binding assay core service (KINOMEscanEDGE) that quantifies the capacity of test agents to compete with an immobilized, active-site directed ligand using a DNA-tagged kinase and immobilized ligand and compound.

H1299 cells = assay: Viable cell count (trypan blue exclusion); assay type: cell-based, human; details: H1299, 48 hours
Protocol: (§1) Viability was determined using trypan blue exclusion as previously described. Cells were incubated in 20% trypan blue (Sigma) for 5 minutes. Cells excluding trypan blue were counted using a standard hemocytometer (Hausser Scientific) to determine total numbers of viable cells. Data are expressed as mean ± SD of three experiments.

HCT116 cells = assay: Viable cell count (trypan blue exclusion); assay type: cell-based, human; details: HCT116, 48 hours
Protocol: as §1

H522 cells = assay: Viable cell count (trypan blue exclusion); assay type: cell-based, human; details: H522, 48 hours
Protocol: as §1

H460 cells [1] = assay: Viable cell count (trypan blue exclusion); assay type: cell-based, human
Protocol: as §1

A549 cells = assay: Viable cell count (trypan blue exclusion); assay type: cell-based, human; details: A549, 48 hours
Protocol: as §1

hT/LT/Ras cells = assay: Viable cell count (trypan blue exclusion); assay type: cell-based, human; details: live cells counted at 48 hours
Protocol: as §1

H441 cells = assay: Viable cell count (trypan blue exclusion); assay type: cell-based, human; details: H441, 48 hours
Protocol: as §1

MDA-MB-231 cells = assay: Viable cell count (trypan blue exclusion); assay type: cell-based, human; details: MDA-MB-231, 48 hours
Protocol: as §1

LNCaP cells = assay: Viable cell count (trypan blue exclusion); assay type: cell-based, human; details: 48 hours
Protocol: as §1

[2] = system: Lewis lung carcinomas (LLC); assay: Lewis lung carcinoma tumor growth in syngeneic mice; assay type: in vivo, C57BL/6 mice; details: 120 mg/kg daily by gavage
Protocol: (§2) For xenograft studies, LLC or H460 cells collected from exponential growth phase culture were washed and resuspended in PBS. Groups of female C57BL/6 mice were injected with LLC cells (n=10 per group, s.c., 1×10^6 cells) and groups of female BALB/c athymic mice (Charles River) were injected with H460 cells (n=10 per group, s.c, 5 × 10^6 cells). Tumor masses were determined in a blinded fashion with Vernier calipers using the formula: mass (mg) = (width, mm)^2 X (length, mm)/2 as previously described. When tumor masses were 150-200 mg, mice were randomized to daily DMSO or 5MPN (in 30% Captisol, 100 μl, by gavage). Tumor measurements and body weights were followed daily. All data are expressed as the mean ± SD of two experiments. Statistical significance was assessed by the two-sample t test (independent variable).

[3] = system: H460 human lung adenocarcinoma xenografts; assay: H460 xenograft growth in athymic mice; assay type: in vivo, BALB/c athymic mice; details: 120 mg/kg daily by gavage
Protocol: as §2

recombinant PFK-1 = assay: PFK-1 kinase activity; assay type: biochemical; details: 10 μM
H460 cells [4] = assay: Apoptosis by flow cytometry (annexin V / propidium iodide); assay type: cell-based, human; details: 10μM 5MPN
Protocol: To measure apoptosis, cells were stained with annexin V and propidium iodide and examined as previously described. For cell cycle experiments, cells were detached, washed with cold PBS and fixed in 70% ethanol at 4°C for 30 minutes. The cells then were pelleted by centrifugation, resuspended in PBS containing PI and RNase A, incubated at 37°C in the dark for 30 minutes and analyzed by flow cytometry (BD FACSCalibur). Data were analyzed using FlowJo software (TREE STAR Inc.). Results were calculated as the mean ± SD of three experiments and data shown are representative of three independent experiments.

[5] = system: intratumoral F2,6BP, LLC xenografts; assay: Intratumoral F2,6BP in LLC tumors; assay type: in vivo, C57BL/6 mice; details: after 10 days of treatment, one hour after dose by gavage
Protocol: Cells or tissues were prepared as previously described and F2,6BP content measured using a coupled enzyme reaction following the method of Van Schaftingen et al and normalized to total cellular protein measured by the bicinchoninic acid assay (Thermo Scientific). All data are expressed as the mean ± SD of three experiments. Statistical significance was assessed by the two-sample t test (independent variable).
At the end of the experiment, one hour after a single dose of DMSO or 5MPN, animals were euthanized, tumors removed and sections fixed in 10% formaldehyde for immunohistochemistry or snap-frozen in liquid nitrogen for analyses. Subsets of tumor-bearing mice (n=3) were administered a single dose of either DMSO or 5MPN one hour prior to imaging then injected i.p. with 2-[^18F]-fluoro-2-deoxyglucose (FDG, 150μCi, 100 μl) and, 45 min after FDG injection, were anesthetized with 2% isoflurane in oxygen and transferred to a R-4 Rodent Scanner (CTI Concorde Microsystems) micro-positron emission tomograph to capture images as previously described. Regions of interest in the tumors and cerebellum were quantified in quadruplicate and expressed as the mean ± SD of the ratio of tumor:cerebellar FDG uptake. Animal experiments were approved by the University of Louisville Institutional Animal Care and Use Committee.

human recombinant PFKFB3, sequence (Q16875 whole entry): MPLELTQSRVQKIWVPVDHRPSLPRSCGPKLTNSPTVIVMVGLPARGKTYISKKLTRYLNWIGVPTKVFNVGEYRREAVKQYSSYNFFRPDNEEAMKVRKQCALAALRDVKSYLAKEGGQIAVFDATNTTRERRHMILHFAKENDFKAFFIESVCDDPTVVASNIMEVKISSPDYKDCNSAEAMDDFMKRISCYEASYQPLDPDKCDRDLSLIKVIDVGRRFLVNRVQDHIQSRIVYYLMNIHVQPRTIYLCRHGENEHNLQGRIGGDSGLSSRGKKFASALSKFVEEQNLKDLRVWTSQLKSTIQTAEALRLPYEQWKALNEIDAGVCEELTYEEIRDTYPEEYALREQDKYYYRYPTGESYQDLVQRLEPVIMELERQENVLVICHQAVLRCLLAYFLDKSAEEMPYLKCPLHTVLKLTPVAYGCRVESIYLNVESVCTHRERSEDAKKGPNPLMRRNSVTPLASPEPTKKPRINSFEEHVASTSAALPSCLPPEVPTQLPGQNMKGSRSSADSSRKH

COc1cccc2c(NCCCCCO[N+](=O)[O-])ccnc12 [Compound 5MPN, 5-(n-(8-methoxy-4-quinolyl)amino)pentyl nitrate]
inhibition of PFKFB3 kinase activity (human recombinant PFKFB3): no inhibition of kinase activity
effect on proliferation (H1299 cells): dose-dependent reduction in growth
effect on proliferation (HCT116 cells): dose-dependent reduction in growth
effect on proliferation (H522 cells): dose-dependent reduction in growth
effect on proliferation (H460 cells [1]; H460, 48 hours): dose-dependent reduction in growth
effect of PFKFB4 over-expression on anti-proliferative effect (H460 cells [1]; H460 cells transfected with PFKFB4 vs empty vector, 10μM 5MPN, 24 hours): protected
effect on proliferation (A549 cells): dose-dependent reduction in growth
effect on cell growth (hT/LT/Ras cells): suppressed similar to other transformed cells
effect on proliferation (H441 cells): dose-dependent reduction in growth
effect on proliferation (MDA-MB-231 cells): dose-dependent reduction in growth
effect on proliferation (LNCaP cells): dose-dependent reduction in growth
tumor growth ([2]; LLC in syngeneic C57BL/6 mice): suppressed the growth
body weight ([2]; LLC-bearing C57BL/6 mice): without affecting body weight
body weight ([3]; H460-bearing BALB/c athymic mice): without affecting body weight
tumor growth ([3]; H460 xenografts in BALB/c athymic mice): suppressed the growth
inhibition of PFK-1 kinase activity (recombinant PFK-1): no inhibition of kinase activity
increase in apoptotic cells (H460 cells [4]): only a minimal increase
intratumoral F2,6BP [5]: marked reduction

— paper PMC4627231, “Targeting the sugar metabolism of tumors with a first-in-class 6-phosphofructo-2-kinase (PFKFB4) inhibitor” (Oncotarget, 2015)
